US20250295686A1, “COMBINATION DECITABINE AND MPS1 INHIBITOR THERAPY TO PRIME CANCER IMMUNOGENICITY” (Dana-Farber Cancer Institute, Inc., priority 2021, published 2025)
Entries after “also recorded” stand apart in the source; their conditions may differ.

Legend:
H1944 cells [1] = experiment: Cell viability assay to determine an IC50 (CellTiter-Glo); format: cell-based, human
Description: Due to their particular hypersensitivity, H1944 cells were utilized as a model system in which to conduct an unbiased screen of cytotoxic chemotherapies or targeted DNA-damaging agents for their ability to upregulate endogenous 2′3′-cGAMP production following pulse treatment, including cGAS-deficient H2122 cells as a counter-screen (FIGS. 3A and 3B). […] Additionally, hydroxyurea or nocodazole were included as controls to induce S-phase or M-phase cell cycle arrest. The IC50 was identified for each compound for cell viability in H1944 cells, and this concentration was utilized for the screen (FIG. 4A and Table 1). It was shown that each agent induced cellular cytotoxicity and/or DNA-damage response at this concentration, as measured by the induction of propidium iodide positive cells, cleaved PARP fragments, or histone TH2A.X expression (FIGS. 4B and 4C).
3000 cells were plated onto 96-well plates, and then cultured for 72 hours in the presence of each DNA-damaging agent at the indicated concentration. Values of CellTiter-Glo Luminescent Cell Viability assay (Promega) […] were normalized to vehicle treated cells. Plates were read on a Tecan Infinite M200 Pro plate reader and analysis was performed using Prism7 (GraphPad Software). All conditions were tested in triplicate.

393P-KL cells = experiment: Efficacy studies in 393P-KL syngeneic model (129S2/SvPasCrl mice); format: in vivo, mouse; conditions: after 12 weeks; decitabine day 1-7 and/or BAY-1217389 day 8, 9, 21, 22; durable response = tumor volume less than 250 mm^3 for at least 50 days after treatment
Procedure: To test this, an efficacy study was performed utilizing the same short-term pulse regimen of the sequential therapy with DAC/MPS1i in 393P-KL syngeneic model. […] Additionally, to further assess the role of an intact immune system, immune-deficient NSG mice were used.

STING pathway [2] = experiment: Immunoblot of STING downstream signaling in H1944 cells treated with MPS1 inhibitors; format: cell-based, human; conditions: 100 nM BAY-1217389, 250 nM CC-671, compared with 200 nM CFI-402257
Procedure: It was also shown that MPS1 inhibitor-induced cellular cytotoxicity was dependent upon intact STING and STAT1 (FIG. 3K).
On the other hand, reconstitution of STING in STING^absent KL cells such as A549 and H23 cells also sensitized them to MPS1 inhibition, leading to CXCL10 secretion and STAT1 activation (FIGS. 3J, 4H). It was determined that MPS1 inhibitor-induced cellular cytotoxicity and growth arrest in KL cells required activation of STING signaling following 48-hour pulse treatment, and to a lesser degree during continuous 96 hour SAC inhibition, which is also capable of arresting KP cells (FIGS. 3K, 4I-4K). […] Phosphorylation of TBK1 and IFN-β secretion, which are upstream of IFNAR1, were also attenuated by IFNAR1 depletion (FIGS. 3L, 4M, and 4N).
(§1) Cells were lysed in RIPA buffer containing 1× protease inhibitors (Roche, Cat #11-836-145-001) and phosphatase inhibitors (50 mmol/L NaF and 100 mmol/L Na3VO4). […] Imaging of blots and quantitation of bands was performed using the LICOR Odyssey system, or LAS-3000 (Fujifilm).

KL NSCLC cell lines = experiment: CXCL10 ELISA after exogenous CDN exposure, KL NSCLC cell lines; format: cell-based, human; conditions: 24 hours
Description: Treatment with 2′3′-cGAMP or ADU-S100 was utilized to examine the sensitivity of KP or KL NSCLC cell lines to exogenous CDN exposure. […] KL cell response to extracellular CDNs was still modest as compared with endothelial cells (HUVEC) or monocytic THP-1 cells, which also have different membrane permeabilities (FIG. 2C) (Cordova et al., 2021; Luteijn et al., 2019; Ritchie et al., 2019).
(§2) Human IFN-β (Thermo Fisher Scientific, Cat. #414101), human CXCL10 (R&D systems, Cat. #DIP100), mouse CXCL10 (R&D systems, Cat. #DY466), and 2′3′-cGAMP (Cayman Chemical, Cat. #501700) ELISAs were performed according to the manufacturer's instructions. Conditioned media from each cell lines was collected after 24 hour culture. Values represent the average of four replicates from at least two independent experiments (biological replicates).

STING pathway [3] = experiment: Pre-treatment with epigenetic inhibitor followed by pulse MPS1i in STING^Low KL cells (ELISA, immunoblot, immunofluorescence); format: cell-based, human
Description: However, since KL cells epigenetically silence STING, unleashing STING expression might robustly sensitize them to MPS1 inhibition, including cell lines with baseline STING absence. Pre-treatment with the EZH2 inhibitor GSK126, which is able to de-repress STING in STING^Low KL cells lines, H1944, and H1355 cells, was explored (Kitajima et al., 2019) (FIGS. 8B and 8C).
as §2, §1
After being grown on chamber slides (CellTreat, Cat #229168) and subjected to various treatment conditions, cells were fixed and permeabilized according to standard protocols. […] Slides were imaged with the Nikon Eclipse 80i microscope, and colocalization was determined using CoLoc2 in ImageJ.

H1944 cells [4] = experiment: Cell cycle analysis through propidium iodide staining; format: cell-based, human; conditions: 48 hours, 200 nM CFI-402257, 2.5 μM cisplatin, 5 μM etoposide, 500 nM pemetrexed, 50 μM hydroxyurea
Description: For cell cycle analysis, cells were stained by BD CycleTEST™ Plus DNA according to the manufacturer's instructions, and then analyzed by FACSCanto 11 (BD Biosciences). For cell viability analysis, cells were stained by propidium iodide (PI) according to the manufacturer's instructions of Annexin V using Alexa Fluor 488 Annexin V dead cell apoptosis kit (Thermo Fisher Scientific, Cat. #V13245) and then analyzed by FACSCanto 11 (BD Biosciences).

[5] = Homo sapiens, NCI-H1944, 72 hours with drug

For `C=CCn1c(=O)c2cnc(Nc3ccc(N4CCN(C)CC4)cc3)nc2n1-c1cccc(C(C)(C)O)n1` [MK1775], the IC50 (H1944 cells [1]; [5]) was 68.5 nM.

`C[C@@H]1COCCN1c1cc(C2([S@](C)(=N)=O)CC2)nc(-c2cc[nH]c3nccc2-3)n1` [ceralasertib] was tested, and the IC50 (H1944 cells [1]; [5]) was 1080 nM.

`COc1ccc(Oc2cc(NCCC(F)(F)F)c3ncc(-c4ccc(C(=O)NC5CC5)c(C)c4)n3n2)c(F)c1F` [BAY-1217389] was tested, and the “durable, long-term response” value (393P-KL cells) was 0 mice and the “STING downstream signaling, cGAS-dependent (immunoblot)” value (STING pathway [2]) was “upregulated to the same extent; also recorded: induced similar cGAS dependent activation of STING signaling”.

With `CNC(=O)c1ccc(Nc2nc(OC3CCCC3)c3c(-c4ccc5nc(C)oc5c4)c[nH]c3n2)c(OC)c1` [CC-671] the “STING downstream signaling, cGAS-dependent (immunoblot)” value (STING pathway [2]) was “upregulated to the same extent; also recorded: induced similar cGAS dependent activation of STING signaling”.

`Cc1cc(-c2cnn3c(NC[C@H]4C[C@@](C)(O)C4)cc(Oc4cccnc4)nc23)ccc1C(=O)NC1CC1` [CFI-402257] gave an IC50 (H1944 cells [1]; [5]) of 254 nM.

`Nc1ncn([C@H]2C[C@H](O)[C@@H](CO)O2)c(=O)n1` [decitabine] was tested, and the “durable, long-term response” value (393P-KL cells) was 2/8.

With `Nc1nc2c(ncn2[C@@H]2O[C@@H]3COP(=O)(O)O[C@H]4[C@@H](O)[C@H](n5cnc6c(N)ncnc65)O[C@@H]4COP(=O)(O)O[C@@H]2[C@@H]3O)c(=O)[nH]1` [2′3′-cGAMP, 2′3′-cyclic GMP-AMP] the “CXCL10 secretion, STING^Absent KL cell lines” value (KL NSCLC cell lines; A549, H23, A427, up to 100 μM) was “failed to respond” and the “CXCL10 secretion, STING^Low KL cells” value (KL NSCLC cell lines; H1944, H2122, H647, H1355, 3.125-100 μM) was “dose-dependent manner”.

`COc1cccc(OCCCN)c1-c1cc(Nc2cnc(C#N)cn2)n[nH]1` [prexasertib] gave an IC50 (H1944 cells [1]; [5]) of 11.3 nM.

With `CC[C@H](C)n1cc(C)c2c(C(=O)NCc3c(C)cc(C)[nH]c3=O)cc(-c3ccc(N4CCNCC4)nc3)cc21` [GSK126] the STING levels (STING pathway [3]; H1944 cells, 5 μM GSK126 combination with 200 nM CFI-402257) was “upregulated STING levels” and the “CXCL10 and IFN-β secretion induced by pulse MPS1i treatment after pre-treatment” value (STING pathway [3]; H1944 or H1355 cells, 5 μM GSK126 pre-treatment, then 200 nM CFI-402257 or 100 nM BAY-1217389) was “markedly enhanced”.

For `NC(=O)NO` [hydroxyurea], the cell cycle status (H1944 cells [4]) was “induced S-phase arrest” and the IC50 (H1944 cells [1]; [5]) was 34600 nM.

In the case of `CC[C@@H]1C(=O)N(C)c2cnc(Nc3ccc(C(=O)N[C@H]4CC[C@H](N5CCN(CC6CC6)CC5)CC4)cc3OC)nc2N1C(C)C` [volasertib], the IC50 (H1944 cells [1]; [5]) is reported as 8.46 nM.

`CCN(CCCOc1ccc2c(Nc3cc(CC(=O)Nc4cccc(F)c4)n[nH]3)ncnc2c1)CCOP(=O)(O)O` [barasertib] was tested, and the IC50 (H1944 cells [1]; [5]) was 160 nM.

With `CCC1=C[C@@H]2CN(C1)Cc1c([nH]c3ccccc13)[C@@](C(=O)OC)(c1cc3c(cc1OC)N(C)[C@H]1[C@@](O)(C(=O)OC)[C@H](OC(C)=O)[C@]4(CC)C=CCN5CC[C@]31[C@@H]54)C2` [vinorelbine] the IC50 (H1944 cells [1]; [5]) was 22.2 nM.

`CN(Cc1cnc2nc(N)nc(N)c2n1)c1ccc(C(=O)N[C@@H](CCC(=O)O)C(=O)O)cc1` [methotrexate] gave an IC50 (H1944 cells [1]; [5]) of 160 nM.

Molecule `O=C(c1cc(Cc2n[nH]c(=O)c3ccccc23)ccc1F)N1CCN(C(=O)C2CC2)CC1` [olaparib] has an IC50 (H1944 cells [1]; [5]) of 27700 nM.

`Nc1nc2[nH]cc(CCc3ccc(C(=O)N[C@@H](CCC(=O)O)C(=O)O)cc3)c2c(=O)[nH]1` [pemetrexed] was tested, and the cell cycle status (H1944 cells [4]) was “induced S-phase arrest” and the IC50 (H1944 cells [1]; [5]) was 612 nM.

In the case of `O=C(O)[C@]1(Cc2cccc(Nc3nccs3)n2)CC[C@@H](Oc2cccc(Cl)c2F)CC1` [MK5108], the IC50 (H1944 cells [1]; [5]) is reported as 3920 nM.

Molecule `COc1cc([C@@H]2c3cc4c(cc3[C@@H](O[C@@H]3O[C@@H]5CO[C@@H](C)O[C@H]5[C@H](O)[C@H]3O)[C@H]3COC(=O)[C@H]23)OCO4)cc(OC)c1O` [etoposide] has an IC50 (H1944 cells [1]; [5]) of 4720 nM.

Molecule `COC(=O)Nc1nc2ccc(C(=O)c3cccs3)cc2[nH]1` [nocodazole] has an IC50 (H1944 cells [1]; [5]) of 60.1 nM.

`N.N.[Cl][Pt][Cl]` [cisplatin] was tested, and the cell cycle status (H1944 cells [4]) was “strongly induced G2/M-arrest” and the IC50 (H1944 cells [1]; 72 hours with drug) was 3270 nM.
